As to `*/C(C)=C(/*)[Si](C)(C)C` (repeat unit), the glass transition temperature came out at 75.00 °C.

`*/C(C)=C(/*)[Si](C)(C)CCCCCC` (repeat unit) came in with a glass transition temperature of 200.00 °C.

As to `*C(=O)c1ccc(C(=O)N(*)c2ccccc2)c(Sc2ccccc2)c1` (repeat unit), the glass transition temperature worked out at 152.00 °C.

Molecule `*C(=O)c1cccc(C(=O)N(*)c2ccccc2)c1` (repeat unit) returned a glass transition temperature of 148.00 °C.

Turning to `*CC(*)c1cc(C(=O)OCCCC)ccc1-c1ccc(OCCCCCCCC)cc1` (repeat unit), the glass transition temperature turned out to be 74.00 °C.

Molecule `*CC(*)c1cc(C(=O)OCCCCCCCC)ccc1-c1ccc(OCCCCCCCC)cc1` (repeat unit) displayed a glass transition temperature of 57.00 °C.

As for `*CC(*)c1cc(C(=O)Oc2ccc(OC)cc2)ccc1C(=O)Oc1ccc(OC)cc1` (repeat unit), the glass transition temperature turned out to be 115.00 °C.

In turn, `*CC(*)c1cc(C(=O)Oc2ccc(OCCCC)cc2)ccc1C(=O)Oc1ccc(OCCCC)cc1` (repeat unit) came in with a glass transition temperature of 103.60 °C.

For `*CC(*)c1cc(Cl)ccc1Cl` (repeat unit), the glass transition temperature is 108.00 °C.

Regarding `*CC(*)c1cc[n+](CCCCCCCC)cc1` (repeat unit), the glass transition temperature came to 206.20 °C.

On to `*CC(*)c1ccc(-c2cccc3nsnc23)cc1` (repeat unit), for which the glass transition temperature is 150.00 °C.

`*CC(*)c1ccc(B(Oc2ccc(-c3ccc(N(C)C)cc3)c3cccnc23)c2ccc(C(C)(C)C)cc2)cc1` (repeat unit) registered a glass transition temperature of 230.00 °C.

Consider `*CC(*)c1ccc(C(=O)CCCC)cc1` (repeat unit), for which the glass transition temperature came to 70.00 °C.

On to `*CC(*)c1ccc(C(=O)Cc2ccccc2)cc1` (repeat unit), for which the glass transition temperature stood at 78.00 °C.

For the molecule `*CC(*)c1ccc(C(=O)N(C)C)cc1` (repeat unit), the glass transition temperature was determined as 125.00 °C.

In turn, `*CC(*)c1ccc(C(=O)N2CCCCC2)cc1` (repeat unit) came in with a glass transition temperature of 114.00 °C.

With `*CC(*)c1ccc(C(=O)OCCC)cc1` (repeat unit), the glass transition temperature stood at 92.00 °C.

Molecule `*CC(*)c1ccc(C(C)(C)O)cc1` (repeat unit) yielded a glass transition temperature of 170.00 °C.

Turning to `*CC(*)c1ccc(C(C)C)cc1` (repeat unit), the glass transition temperature was 62.40 °C.

`*CC(*)c1ccc(C([Si](C)(C)C)[Si](C)(C)C)cc1` (repeat unit) came in with a glass transition temperature of 156.00 °C.

The molecule `*CC(*)c1ccc(C)nc1` (repeat unit) gave a glass transition temperature of 136.00 °C.

Turning to `*CC(*)c1ccc(CC)cc1` (repeat unit), the glass transition temperature was 71.40 °C.

As for `*CC(*)c1ccc(CCCCCCCCCC)cc1` (repeat unit), the glass transition temperature is -65.00 °C.

For `*CC(*)c1ccc(CCCCCCCCCCCC)cc1` (repeat unit), the glass transition temperature is -52.00 °C.

On to `*CC(*)c1ccc(CCCCCCCCCCCCCCCCCC)cc1` (repeat unit), for which the glass transition temperature is 32.00 °C.

With `*CC(*)c1ccc(COCC(CC)CCCC)cc1` (repeat unit), the glass transition temperature is -23.00 °C.

The molecule `*CC(*)c1ccc(COCC(F)(F)C(F)(F)C(F)(F)C(F)(F)F)cc1` (repeat unit) gave a glass transition temperature of 23.00 °C.

As to `*CC(*)c1ccc(COCCC(F)(F)C(F)(F)C(F)(F)C(F)(F)C(F)(F)C(F)(F)F)cc1` (repeat unit), the glass transition temperature came to 18.00 °C.

For the molecule `*CC(*)c1ccc(COCCOCC)cc1` (repeat unit), the glass transition temperature turned out to be 0.00 °C.

`*CC(*)c1ccc(COc2ccc(-c3ccc(-c4ccc(C)cc4)c4nsnc34)cc2)cc1` (repeat unit) had a glass transition temperature of 117.00 °C.

`*CC(*)c1ccc(COc2ccc(-c3ccc(-c4ccc(C)s4)c4nsnc34)cc2)cc1` (repeat unit) had a glass transition temperature of 130.00 °C.

In turn, `*CC(*)c1ccc(COc2ccc(-c3ccc(C#N)cc3)cc2)cc1` (repeat unit) gave a glass transition temperature of 132.00 °C.

The molecule `*CC(*)c1ccc(Cl)c(C)c1` (repeat unit) had a glass transition temperature of 114.00 °C.

`*CC(*)c1ccc(Cl)cc1C` (repeat unit) gave a glass transition temperature of 145.00 °C.

The molecule `*CC(*)c1ccc(O)c(OC)c1` (repeat unit) came in with a glass transition temperature of 142.00 °C.

On to `*CC(*)c1ccc([Si](C)(C)C)cc1` (repeat unit), for which the glass transition temperature came to 136.00 °C.

Consider `*CC(*)c1ccc([Si](C)(C)OC(C)C)cc1` (repeat unit), for which the glass transition temperature amounted to 180.00 °C.

Molecule `*CC(*)c1ccc([Si](C)(C)O[Si](C)(C)O[Si](C)(C)C)cc1` (repeat unit) registered a glass transition temperature of -27.00 °C.

The molecule `*CC(*)c1ccc([Si](C)(O[Si](C)(C)C)O[Si](C)(C)C)cc1` (repeat unit) gave a glass transition temperature of 54.00 °C.

As to `*CC(*)c1cccc(B(O[Si](C)(C)C)O[Si](C)(C)C)c1` (repeat unit), the glass transition temperature came to 35.00 °C.

Regarding `*CC(*)c1cccc(Br)c1` (repeat unit), the glass transition temperature is 102.00 °C.

The molecule `*CC(*)c1cccc(Cl)c1` (repeat unit) returned a glass transition temperature of 90.00 °C.

Turning to `*CC(*)c1cccc(F)c1` (repeat unit), the glass transition temperature turned out to be 86.00 °C.

Molecule `*CC(*)c1cccc(OC(C)=O)c1` (repeat unit) displayed a glass transition temperature of 76.00 °C.

`*CC(*)c1cccc2c1OCO2` (repeat unit) came in with a glass transition temperature of 119.00 °C.

Consider `*CC(*)c1ccccc1C(=O)Nc1ccccc1` (repeat unit), for which the glass transition temperature was determined as 191.00 °C.

The molecule `*CC(*)c1ccccc1C(=O)O` (repeat unit) returned a glass transition temperature of 177.00 °C.

Molecule `*CC(*)c1ccccc1C(=O)OC` (repeat unit) had a glass transition temperature of 130.00 °C.

`*CC(*)c1ccccc1C(=O)OC(C)C` (repeat unit): the glass transition temperature came to 146.00 °C.

Turning to `*CC(*)c1ccccc1C(=O)OCC` (repeat unit), the glass transition temperature was 118.00 °C.

The molecule `*CC(*)c1ccccc1C(=O)OCCC` (repeat unit) returned a glass transition temperature of 108.00 °C.

Consider `*CC(*)c1ccccc1C(=O)OCCC(C)C` (repeat unit), for which the glass transition temperature was determined as 68.00 °C.

Molecule `*CC(*)c1ccccc1C(=O)OCCN(C)C` (repeat unit) gave a glass transition temperature of 69.00 °C.

Regarding `*CC(*)c1ccccc1C(=O)Oc1ccccc1` (repeat unit), the glass transition temperature amounted to 124.00 °C.

`*CC(*)c1ccccc1COCCC(C)C` (repeat unit) registered a glass transition temperature of 78.00 °C.

`*CC(*)c1ccccc1COCCCC` (repeat unit) gave a glass transition temperature of 67.00 °C.

As to `*CC(*)c1ccccc1COCCCCC` (repeat unit), the glass transition temperature came out at 47.00 °C.

As for `*CC(*)c1ccccc1COCCc1ccccc1` (repeat unit), the glass transition temperature stood at 63.00 °C.

As for `*CC(*)c1ccccc1COCc1ccccc1` (repeat unit), the glass transition temperature was found to be 72.00 °C.

Take `*CC(*)c1ccccc1OC(C)=O` (repeat unit): the glass transition temperature turned out to be 118.00 °C.

Molecule `*CC(*)c1cccs1` (repeat unit) came in with a glass transition temperature of 71.00 °C.

Consider `*CC(*)c1nc(C)nc(C)n1` (repeat unit), for which the glass transition temperature stood at 70.00 °C.

The molecule `*CC(*)n1ccnc1` (repeat unit) returned a glass transition temperature of 175.00 °C.

Turning to `*CC(*)n1cncn1` (repeat unit), the glass transition temperature was determined as 165.00 °C.

Consider `*CC(C)(C)C1C(=O)N(C2CCCCC2)C(=O)C1*` (repeat unit), for which the glass transition temperature is 192.00 °C.

`*CC(OC)C1(C)C(=O)OC(=O)C1(*)C` (repeat unit) showed a glass transition temperature of 260.00 °C.

For `*CC(OCC)C1(C)C(=O)OC(=O)C1(*)C` (repeat unit), the glass transition temperature is 244.00 °C.

With `*CC(c1ccccc1)C1C(=O)N(CCCCNC(=O)C(F)(F)C(F)(F)C(F)(F)C(F)(F)C(F)(F)C(F)(F)C(F)(F)F)C(=O)C1*` (repeat unit), the glass transition temperature came out at 113.00 °C.

`*CC(c1ccccc1)C1C(=O)N(CCCN(CC)c2ccc(/N=N/c3ccc([N+](=O)[O-])cc3)c(C)c2)C(=O)C1*` (repeat unit): the glass transition temperature amounted to 137.00 °C.

The molecule `*CC(c1ccccc1)C1C(=O)N(CCCN(CC)c2ccc(/N=N/c3ccc([N+](=O)[O-])cc3Cl)c(C)c2)C(=O)C1*` (repeat unit) came in with a glass transition temperature of 149.00 °C.

Molecule `*CC(c1ccccc1)C1C(=O)N(CCCOc2ccc(-c3ccc(C#N)cc3)cc2)C(=O)C1*` (repeat unit) registered a glass transition temperature of 130.00 °C.

The molecule `*CC(c1ccccc1)C1C(=O)N(c2ccc(Oc3ccccc3)cc2)C(=O)C1*` (repeat unit) displayed a glass transition temperature of 194.00 °C.

As to `*CC(c1ccccc1)C1C(=O)N(c2ccccc2)C(=O)C1*` (repeat unit), the glass transition temperature came to 221.00 °C.

`*CC1(*)CC(=O)N(c2ccccc2)C1=O` (repeat unit): the glass transition temperature was determined as 236.00 °C.

For the molecule `*CC1CCCC(CNC(=O)c2cc(C(=O)N*)cc(C(C)(C)C)c2)C1` (repeat unit), the glass transition temperature was found to be 200.00 °C.

Take `*CCCCCCCCCCCCNC(=O)C(OC)C(OC)C(=O)N*` (repeat unit): the glass transition temperature was determined as 84.00 °C.

Consider `*CCCCCCCCCCOC(=O)CC/C=C/CCC(=O)O*` (repeat unit), for which the glass transition temperature was -15.00 °C.

`*CCCCCCCCNC(=O)C(OC)C(OC)C(=O)N*` (repeat unit): the glass transition temperature is 89.00 °C.

`*CCCCCCNC(=O)C(OC)C(OC)C(=O)N*` (repeat unit) showed a glass transition temperature of 106.00 °C.

Regarding `*CCCCCCNC(=O)c1cc(C(=O)N*)cc(C(C)(C)C)c1` (repeat unit), the glass transition temperature came out at 163.00 °C.

With `*Oc1ccc(C(C)(C)c2ccc(OC(=O)NC(=O)c3cc(C(=O)NC(*)=O)cc(C(C)(C)C)c3)cc2)cc1` (repeat unit), the glass transition temperature was 123.50 °C.
